# Measurements as given in ChEMBL document CHEMBL3507680, “University of Dundee, Gates Library screen for HepG2 cell viability”.
# Assay: Human HepG2 cell viability assay in 384 well format
# Assay type: toxicity, cell-based
# Parameters: dose 125 nL, time 70.5 hour; concentration not given beside the values
# Conditions: HepG2 cells, read-out: Inhibition
row,SMILES,cytotoxicity at 70.5 h [%]
1,O=C(CCN1CCCC1)N1CC[C@@H](c2ccc3ccccc3c2)[C@H](O)C1,-21
2,CCCc1nnc2sc(C3CCS(=O)(=O)CC3)nn12,-10.2
3,CC(=O)N1CCN(C(=O)c2snnc2C)[C@H]2CS(=O)(=O)C[C@H]21,-6.51
4,COc1cc(C)ccc1OCCN1CC[C@@]2(O)CCNC[C@H]2C1,-4.21
5,CNc1nc2c(c(C(=O)N3CCCC3)n1)CN(C(=O)c1cccs1)CC2,5.33
6,CCC[C@H]1CN(S(C)(=O)=O)C[C@@H]1NC(=O)Cc1ccc(F)cc1C,-1.4
7,O=c1[nH]nc(CCCN2CCOCC2)n1Cc1cccc(F)c1,-2.64
8,Cc1nc(CCNC(=O)CC2CCN(C(C)C)CC2)sc1Cl,45.7
9,COc1ccc(CN2CCSCC2)c(OC)c1,-6.31
10,Cc1cccc2cc(C(=O)N3CCSCC3)n(C)c12,-3.37
11,OCCCc1nncn1-c1cccc(C(F)(F)F)c1,-1.23
12,O=C(c1ccc(=O)[nH]c1)N1CCCC2(C=Cc3ccccc3O2)CC1 (stereo unspecified),-3.22
13,COCCCN1CC2(CCN(C(=O)Cc3csc(C)n3)CC2)CC1=O,-7.77
14,O=C1CC(NCc2ccncc2)CN1CCc1cccc(Cl)c1 (stereo unspecified),-6.56
15,Cc1ccc2nc(-c3cnc(N)nc3)cc(C(=O)N(C)C)c2c1,1.63
16,COCC(=O)N1C[C@H]2CNC[C@@]2(C(=O)NCc2nc(C)cc(C)n2)C1,-7.28
17,COc1ccc(-c2cccc(-c3ccn(CC4COCCO4)n3)c2)nn1 (stereo unspecified),-5.24
18,CCN(Cc1noc(C2CCC2)n1)C(=O)c1cnc2ccccc2c1,13.1
19,CCc1noc(C)c1C(=O)N1CCC2(CCCN(CC(C)(C)C)C2=O)C1 (stereo unspecified),-5.92
20,CC(=O)N1CC2(CCN(c3nccc4ccccc34)CC2)CC1C(=O)O (stereo unspecified),-9.28
21,CC(C)N1CCOC(CC(=O)N2CCCN(Cc3cccs3)CC2)C1 (stereo unspecified),-11.6
22,CCN1CCCC(CN(C)c2nccc(-c3ccc(C)nc3C)n2)C1 (stereo unspecified),-1.39
23,OCc1ccc(CN(CCCn2ccnc2)Cc2cccnc2)o1,-8.65

row,SMILES,cytotoxicity at 70.5 h [%]
1,COCCN1CCC(CNC(=O)Nc2ccc(F)c(Cl)c2)C1 (stereo unspecified),24.8
2,CCc1cc(NCC(O)CN2CCCC2)ncn1 (stereo unspecified),21.2
3,O=C1O[C@@H]2CN(Cc3cc4ccccc4s3)C[C@@H]2N1Cc1ccccn1,-6.44
4,c1cc(-c2nccn2CCc2nc3c(s2)CCC3)ccn1,12.9
5,NCC1Cc2cc(Cl)cc(-c3cncc(C(=O)N4CCCCC4)n3)c2O1 (stereo unspecified),-6.78
6,Cc1noc(C)c1C(=O)N1CCCC(c2nccn2Cc2cscn2)C1 (stereo unspecified),-5.18
7,O=C(NCc1ccc(F)cc1F)C(c1cccnc1)N1CCOCC1 (stereo unspecified),-0.235
8,c1nc(N2CCCC2)ncc1CN1CCCC(CN2CCCCC2)C1 (stereo unspecified),24.4
9,CC(C)[C@H]1CN(c2ccncc2)C[C@@H]1NS(=O)(=O)N(C)C,-4.27
10,Cc1cc(N[C@@H](CO)c2ccccc2)n2nc(C)c(C)c2n1,-2.95
11,CCCN(Cc1nccn1C)C(=O)C(CC)Nc1cccc(OC)c1 (stereo unspecified),-3.17
12,Cc1nc(CN2CCCC23CCN(c2nc4ccccc4s2)CC3)co1,-12.9
13,CC(=O)N1CCN(Cc2cccc3c2sc2ccccc23)CC(O)C1 (stereo unspecified),-5.85
14,CSc1ncc(CNC(C)c2cnn(-c3ccc(F)cc3F)c2C)cn1 (stereo unspecified),-2.86
15,CN1CCn2nc(-c3nc4ccccc4n3C)cc2C1,32.2
16,COCCN(C)C(C(=O)O)c1cc(Cl)ccc1OC (stereo unspecified),7.55
17,O=C(c1cn(CC(=O)N2CCCC2)c2ccccc12)C1CC1,-2.27
18,CCc1cc(N(C)Cc2nonc2C)nc(N(C)C)n1,7.36
19,Cc1nc(CNCc2ccc(OC34CCCN(CC3)C4)cc2)n[nH]1 (stereo unspecified),-5.4
20,CN(Cc1cnc(N)nc1)CC1CCCN(CCc2ccc(Cl)cc2)C1 (stereo unspecified),8.66
21,CC[C@@H](CO)NC(=O)c1cc(COc2ccc(OC)cc2Cl)[nH]n1,-3.92
22,NC(=O)c1ccccc1-n1cc(-c2cccc(C(=O)O)c2)cn1,-9.16
23,CCNc1ccnc(NCc2cn3nc(C)sc3n2)n1,-15.7

row,SMILES,cytotoxicity at 70.5 h [%]
1,Fc1cc(Cl)cnc1N1CCCC(c2nccn2CC2CC2)C1 (stereo unspecified),22.7
2,COCCN(Cc1sccc1C)C(=O)C1CCN(C(C)C)CC1,-2.9
3,Cc1cccc2cc(CN3CCC(N4CCCC4)CC3)c(=O)[nH]c12,-6.75
4,c1ccc(-c2nc(CCNC3CCOC4(CCOCC4)C3)no2)cc1 (stereo unspecified),-8.69
5,NCCc1nc(N[C@@H](CO)c2ccccc2)c2ccccc2n1,7.85
6,CN(C)c1ncnc2c1CCN(S(=O)(=O)c1ccccc1C(F)(F)F)C2,1.88
7,CC(C)(C)C(=O)N1CCC(n2cc(C3(O)CCCC3)nn2)CC1,-9.39
8,CCc1ncc(C(=O)N2CCN(C(=O)COc3ccccc3)CC2)cn1,-3.1
9,Cc1nccn1CCC1CCN(c2ccncn2)CC1,-2.98
10,CN1C[C@@H](NC(=O)C(C)(C)C)C[C@H]1C(=O)NCc1ncc[nH]1,-8.54
11,Cc1cccc2[nH]c(C3CCN(C(=O)c4c[nH]c(=O)[nH]c4=O)CC3)nc12,-7.98
12,Cc1c(C(C)NC(=O)Nc2ccc(F)cc2F)cnn1C (stereo unspecified),-3.54
13,OCC1CCCCN1CCCNCc1cc(O)c2cc(F)ccc2n1 (stereo unspecified),-4.1
14,Cc1nonc1CN(C)c1nc(-c2cccnc2)nc2c1CCNC2,0.678
15,COCCN1CCC(CN(CC2CCCO2)C(=O)Cn2cccn2)CC1 (stereo unspecified),-4.66
16,Cc1nc(-c2cccc(N3CCC(N4CCCC4)CC3)c2)cs1,13.8
17,O=C(c1ccc2sccc2c1)N1CCC(C(=O)O)(n2cccn2)CC1,-6.51
18,COc1cnc(N2CCCN(Cc3ccc(F)cc3)CC2)nc1,4.55
19,CC(C)=CCN1Cc2nnc(C3CCOCC3)n2C(Cc2c[nH]cn2)C1 (stereo unspecified),-5.43
20,Cc1nccnc1N1Cc2cnn(Cc3ccc(F)cc3)c2C1,-0.0825
21,CCNc1ccc(-c2ccnc3c2ccn3C)nn1,-5.15
22,CCC(C)N(CC)C(=O)c1ccc2[nH]nnc2c1 (stereo unspecified),-6.36
23,CCn1cc(CN(C)Cc2cnn(-c3ccc(F)cc3)c2)cn1,13.5

row,SMILES,cytotoxicity at 70.5 h [%]
1,c1coc(-c2nc(CNC3CCC4(CCNCC4)CC3)no2)c1,-3.78
2,Cc1nccn1C1(C(=O)O)CCN(Cc2ccc3c(c2)OCCO3)CC1,-3.95
3,O=C(c1ccc(S(=O)(=O)NCc2ccon2)cc1)N1CCNCC1,-6.36
4,CN(C)S(=O)(=O)N1CCOCC1CC(=O)NCCOc1ccccc1 (stereo unspecified),-15.5
5,O=C(CC1COCCN1)N1CCCN(C2Cc3ccccc3C2)CC1 (stereo unspecified),-3.92
6,Cc1cc(C2CCC2)nc(N(C)Cc2ncccc2C)n1,2.14
7,COc1cccc(-c2n[nH]c3c2CN(C(=O)c2ccncc2)CC3)c1,-5.87
8,COc1cc(C)cc(-c2nc3c([nH]2)CCNC3)c1OC,9.79
9,O=C(NC1CC1)C1CNCCN1C(=O)CCc1ccc2c(c1)OCO2 (stereo unspecified),-3.72
10,O=C(c1cc2c([nH]c1=O)CCC2)N1CCCCC1c1cccc(F)c1 (stereo unspecified),2.02
11,COCCC(=O)N1CCCC(CCc2ccc(F)c(F)c2)C1 (stereo unspecified),-9.08
12,O=C(O)C(c1ccc(Cl)c(F)c1)N1CCN(Cc2ccccn2)CC1 (stereo unspecified),-2.57
13,CCCc1cc(C(=O)N2C[C@H]3CC=C(C)C[C@H]3C2)ccn1,-8.24
14,N#Cc1cccc(C(=O)N2CCCC(C(=O)CCc3ccccc3)C2)c1 (stereo unspecified),-5.64
15,O=C1CCCN1CCN1CC[C@@]2(O)CCN(c3ncccn3)C[C@H]2C1,15.5
16,COc1ccc([C@@H]2CN(Cc3cccnc3N)C[C@H]2N(C)C)cc1,-2.88
17,CCc1nc2c(NCC3COc4ccccc4C3)ncnc2o1 (stereo unspecified),-1.81
18,OCC1(O)CCN(Cc2ccc(-c3cc[nH]n3)s2)CC1,6.86
19,Cc1c(-c2c(-c3ccccc3)ncn2[C@H](CO)C(=O)O)cnn1C,-7.01
20,CCC[C@@H]1CN(Cc2c[nH]c(CC3CCCC3)n2)C[C@H]1C(=O)O,-7.4
21,CC(C)CC(O)C1CCN(C(=O)c2ccc(C(C)C)[nH]c2=O)CC1 (stereo unspecified),18.9
22,COC(=O)c1cc(CN2CCN(c3nc(C)cnc3C)CC2)ccc1O,-1.95
23,Cc1nc[nH]c1CN(C)CC1CCCN(CCc2ccc(Cl)cc2)C1 (stereo unspecified),20.5

row,SMILES,cytotoxicity at 70.5 h [%]
1,Cc1ccc(-c2cn[nH]c2C2CCCN(c3nccc(N)n3)C2)cc1 (stereo unspecified),-1.62
2,CCn1ncnc1C1CC(=O)NCc2nc3ccccn3c21 (stereo unspecified),-3.8
3,CN(C)C(=O)N1CCN(Cc2ccccc2)[C@@H]2CS(=O)(=O)C[C@@H]21,-7.42
4,CCc1ccc(CN2CCCC(CO)(CCOC)C2)cc1 (stereo unspecified),-8.83
5,CC(C)CN1CCCn2nc(CNC(=O)CCCc3cn[nH]c3)cc2C1,-9.85
6,CCc1nccc(CN2CCCC(c3nn(C)c(=O)n3CC)C2)n1 (stereo unspecified),-3.33
7,Nc1nccc(N2CCC(Cc3ccccc3Cl)(C(=O)O)CC2)n1,-2.75
8,NC(=O)NCC(=O)N1C[C@H]2CC[C@@H]1CN(C1Cc3ccccc3C1)C2,-10.1
9,Cc1ncc(S(C)(=O)=O)c(C2CCCNC2)n1 (stereo unspecified),2.69
10,CCn1c(CN2CCCC2)nnc1C1CCN(Cc2ccc(C)o2)CC1,-5.38
11,N#Cc1c(C2CC2)cc(-c2ccc(O)cc2)nc1N,1.29
12,Cn1c(Cn2cccn2)nnc1C1CCN(Cc2cccnc2N)CC1,-0.251
13,Cc1nc(N2CCCCC2)ncc1C(=O)N1CC(C)(C)[C@@](C)(O)C1,-6.11
14,Cc1nccc(N2CCC(=O)N(Cc3ccc(F)cc3)C(C(C)C)C2)n1 (stereo unspecified),-2.7
15,O=C(Nc1ccc(F)cc1)N1C[C@H]2CC[C@@H]1CN(Cc1cccnc1)C2,-3.12
16,OCCOCCN1CCCC1c1nc2cc(F)ccc2[nH]1 (stereo unspecified),12
17,Cc1nn2c(N3CCC(O)C3)cc(-c3ccccc3)nc2c1C (stereo unspecified),-5.83
18,O=C(C1CC(=O)N(C2CCCC2)C1)N1CCN(CCn2cccc2)CC1 (stereo unspecified),-5.71
19,CCOC(=O)C1CCCN(c2ccc(-c3nc(C)no3)cn2)C1 (stereo unspecified),-4.38
